In the test the test system is BALB/c mice. Briefly: In vivo translation efficacy of FLuc-encoding mRNA-LNPs (whole body bioluminescence). As to conditions: 10 μg mRNA i.v., 4, 8 and 24 h. The procedure: Two reporters were selected to determine in vivo protein production: firefly luciferase (FLuc) and human erythropoietin (hEPO). The mRNA encoding each gene was obtained by IVT using T7 RNA polymerase for co-transcriptional capping with m^7Gppp^5′SAmpG and m^7GpppAmpG as the reference cap structure. 500 μl or 1000 μl of the IVT mix (for obtaining mRNA encoding hEPO or FLuc, respectively) contained following components at indicated final concentration: transcription buffer with 2 mM spermidine and Bis-Tris pH 6.5, 1 U/μl RNase inhibitor (RiboLock, ThermoFisher Scientific), 5 mM ATP, CTP and UTP, 4 mM GTP, 10 mM DTT, 25 mM MgCl2, 0.002 U/μl inorganic pyrophosphatase (ThermoFisher Scientific), 10 mM m^7GpppAmpG or m^7Gppp^5’SAmpG, 40 ng/μl linearized plasmid as the DNA template and 0.125 μg/μl T7 RNA polymerase (in-house prepared). All components were gently mixed by pipetting and incubated for one hour at 37°C. After DNA template removal, obtained mRNA was initially purified using oligo(dT)25 resin, as previously described, and concentrated by ultrafiltration (Amicon Ultra-15 50K or 100K, Millipore) prior loading on preparative column. […] Eluate quality was analyzed on 1 × TBE 1.2% agarose gel, and the fractions containing mRNA of the highest purity were combined, desalted by ultrafiltration (Amicon Ultra-15 50K or 100K, Millipore), and precipitated. […]

Structures are written as SMILES.

For `CO[C@@H]1[C@H](OP(=O)(O)OC[C@H]2O[C@@H](n3cnc4c(=O)[nH]c(N)nc43)[C@H](O)[C@@H]2O)[C@@H](CSP(=O)([O-])OP(=O)(O)OP(=O)(O)OC[C@H]2O[C@@H](n3c[n+](C)c4c(O)nc(N)nc43)[C@H](O)[C@@H]2O)O[C@H]1n1cnc2c(N)ncnc21` [Compound 8, m^7Gppp^5’SAmpG], the “FLuc protein expression (whole body bioluminescence) versus m^7GpppAmpG-capped mRNA (in words)” value (GeneVoy LNP) is “the effect was the opposite” and the “FLuc protein expression (whole body bioluminescence) versus m^7GpppAmpG-capped mRNA (in words)” value (SM-102 LNP) is reported as “no significant differences”.
